Laboratory results as given in publication PMC6592620 (Biochemistry, 2018).

Target: phiYFP (yellow fluorescent protein from the jellyfish Phialidium sp.) (Phialidium sp. SL-2003, UniProt Q6RYS7)
Test: fluorescence titration, single site binding model

- Kd: 50 ± 2 mM
SMILES: I [iodide]
